# Measured values as given in PubChem BioAssay (NCI).
#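 Dose response: 5 concentrations. Exposure: 48 h. Format: 96-well plates. Endpoint: linear interpolation; highest concentration if not reached. TGI denotes the concentration required for complete inhibition of growth.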
# Experiments:
# Assay in all cases: NCI tumour cell line growth inhibition, 48 h
# 786-0 renal = system: 786-0 renal
# A498 renal = system: A498 renal
# A549 NSCLC = system: A549 NSCLC
# ACHN renal = system: ACHN renal
# BT-549 breast = system: BT-549 breast
# CAKI-1 renal = system: CAKI-1 renal
# CCRF-CEM leukemia = system: CCRF-CEM leukemia
# COLO 205 colon = system: COLO 205 colon
# DU-145 prostate = system: DU-145 prostate
# EKVX NSCLC = system: EKVX NSCLC
# HCC-2998 colon = system: HCC-2998 colon
# HCT-116 colon = system: HCT-116 colon
# HCT-15 colon = system: HCT-15 colon
# HL-60(TB) leukemia = system: HL-60(TB) leukemia
# HOP-92 NSCLC = system: HOP-92 NSCLC
# HS 578T breast = system: HS 578T breast
# HT29 colon = system: HT29 colon
# IGROV1 ovarian = system: IGROV1 ovarian
# K-562 leukemia = system: K-562 leukemia
# KM12 colon = system: KM12 colon
# LOX IMVI melanoma = system: LOX IMVI melanoma
# M14 melanoma = system: M14 melanoma
# MALME-3M melanoma = system: MALME-3M melanoma
# MCF7 breast = system: MCF7 breast
# MDA-MB-231 breast = system: MDA-MB-231 breast
# MDA-MB-435 = system: MDA-MB-435
# MDA-N = system: MDA-N
# MOLT-4 leukemia = system: MOLT-4 leukemia
# NCI-H226 lung = system: NCI-H226 lung
# NCI-H23 lung = system: NCI-H23 lung
# NCI-H522 lung = system: NCI-H522 lung
# NCI/ADR-RES ovarian = system: NCI/ADR-RES ovarian
# OVCAR-3 ovarian = system: OVCAR-3 ovarian
# OVCAR-4 ovarian = system: OVCAR-4 ovarian
# OVCAR-5 ovarian = system: OVCAR-5 ovarian
# OVCAR-8 ovarian = system: OVCAR-8 ovarian
# PC-3 prostate = system: PC-3 prostate
# RPMI-8226 leukemia = system: RPMI-8226 leukemia
# SF-268 CNS = system: SF-268 CNS
# SF-539 CNS = system: SF-539 CNS
# SK-MEL-2 melanoma = system: SK-MEL-2 melanoma
# SK-MEL-28 melanoma = system: SK-MEL-28 melanoma
# SK-MEL-5 melanoma = system: SK-MEL-5 melanoma
# SK-OV-3 ovarian = system: SK-OV-3 ovarian
# SNB-19 CNS = system: SNB-19 CNS
# SNB-75 CNS = system: SNB-75 CNS
# SW-620 colon = system: SW-620 colon
# TK-10 renal = system: TK-10 renal
# U251 CNS = system: U251 CNS
# UACC-257 melanoma = system: UACC-257 melanoma
# UACC-62 melanoma = system: UACC-62 melanoma
# UO-31 renal = system: UO-31 renal
# HOP-62 NSCLC = system: HOP-62 NSCLC
# NCI-H460 lung = system: NCI-H460 lung
# SF-295 CNS = system: SF-295 CNS
# SR leukemia = system: SR leukemia
# T-47D breast = system: T-47D breast
compound,measurement,setting,value
C/C(=N\NC(=O)CC#N)C(CN1CCCCC1)C(c1ccccc1)c1c(O)c2ccccc2oc1=O (stereo unspecified),TGI,786-0 renal,> 100 µM
same,TGI,A498 renal,82.5 µM
same,TGI,A549 NSCLC,> 100 µM
same,TGI,ACHN renal,> 100 µM
same,TGI,BT-549 breast,> 100 µM
same,TGI,CAKI-1 renal,> 100 µM
same,TGI,CCRF-CEM leukemia,73.5 µM
same,TGI,COLO 205 colon,32.6 µM
same,TGI,DU-145 prostate,> 100 µM
same,TGI,EKVX NSCLC,> 100 µM
same,TGI,HCC-2998 colon,> 100 µM
same,TGI,HCT-116 colon,> 100 µM
same,TGI,HCT-15 colon,> 100 µM
same,TGI,HL-60(TB) leukemia,63.3 µM
same,TGI,HOP-92 NSCLC,95.7 µM
same,TGI,HS 578T breast,> 100 µM
same,TGI,HT29 colon,> 100 µM
same,TGI,IGROV1 ovarian,> 100 µM
same,TGI,K-562 leukemia,> 100 µM
same,TGI,KM12 colon,> 100 µM
same,TGI,LOX IMVI melanoma,40.1 µM
same,TGI,M14 melanoma,> 100 µM
same,TGI,MALME-3M melanoma,> 100 µM
same,TGI,MCF7 breast,40.6 µM
same,TGI,MDA-MB-231 breast,> 100 µM
same,TGI,MDA-MB-435,> 100 µM
same,TGI,MDA-N,> 100 µM
same,TGI,MOLT-4 leukemia,69.4 µM
same,TGI,NCI-H226 lung,> 100 µM
same,TGI,NCI-H23 lung,> 100 µM
same,TGI,NCI-H522 lung,> 100 µM
same,TGI,NCI/ADR-RES ovarian,> 100 µM
same,TGI,OVCAR-3 ovarian,> 100 µM
same,TGI,OVCAR-4 ovarian,> 100 µM
same,TGI,OVCAR-5 ovarian,> 100 µM
same,TGI,OVCAR-8 ovarian,> 100 µM
same,TGI,PC-3 prostate,> 100 µM
same,TGI,RPMI-8226 leukemia,> 100 µM
same,TGI,SF-268 CNS,> 100 µM
same,TGI,SF-539 CNS,> 100 µM
same,TGI,SK-MEL-2 melanoma,> 100 µM
same,TGI,SK-MEL-28 melanoma,> 100 µM
same,TGI,SK-MEL-5 melanoma,> 100 µM
same,TGI,SK-OV-3 ovarian,> 100 µM
same,TGI,SNB-19 CNS,> 100 µM
same,TGI,SNB-75 CNS,> 100 µM
same,TGI,SW-620 colon,> 100 µM
same,TGI,TK-10 renal,> 100 µM
same,TGI,U251 CNS,> 100 µM
same,TGI,UACC-257 melanoma,> 100 µM
same,TGI,UACC-62 melanoma,> 100 µM
same,TGI,UO-31 renal,> 100 µM
Cc1c(NC(=O)CCl)c(=O)oc2c(C)c3occc(=O)c3cc12,TGI,786-0 renal,32.4 µM
same,TGI,A498 renal,31.7 µM
same,TGI,A549 NSCLC,35 µM
same,TGI,ACHN renal,80.5 µM
same,TGI,CAKI-1 renal,25.3 µM
same,TGI,CCRF-CEM leukemia,41.8 µM
same,TGI,COLO 205 colon,40 µM
same,TGI,DU-145 prostate,74.5 µM
same,TGI,EKVX NSCLC,38.2 µM
same,TGI,HCC-2998 colon,32.8 µM
same,TGI,HCT-116 colon,25.9 µM
same,TGI,HL-60(TB) leukemia,21.9 µM
same,TGI,HOP-62 NSCLC,29.8 µM
same,TGI,HOP-92 NSCLC,27.5 µM
same,TGI,HS 578T breast,59.6 µM
same,TGI,HT29 colon,35.3 µM
same,TGI,IGROV1 ovarian,31.2 µM
same,TGI,K-562 leukemia,52 µM
same,TGI,KM12 colon,23.9 µM
same,TGI,M14 melanoma,26 µM
same,TGI,MALME-3M melanoma,44.4 µM
same,TGI,MCF7 breast,66.2 µM
same,TGI,MDA-N,31 µM
same,TGI,MOLT-4 leukemia,17.9 µM
same,TGI,NCI-H460 lung,27.5 µM
same,TGI,NCI/ADR-RES ovarian,60.8 µM
same,TGI,OVCAR-4 ovarian,25.6 µM
same,TGI,OVCAR-5 ovarian,32.4 µM
same,TGI,OVCAR-8 ovarian,43.2 µM
same,TGI,RPMI-8226 leukemia,60.1 µM
same,TGI,SF-268 CNS,25.9 µM
same,TGI,SF-295 CNS,25.2 µM
same,TGI,SK-MEL-28 melanoma,39.2 µM
same,TGI,SK-MEL-5 melanoma,23.6 µM
same,TGI,SK-OV-3 ovarian,32.8 µM
same,TGI,SNB-19 CNS,33.6 µM
same,TGI,SNB-75 CNS,8.47 µM
same,TGI,SR leukemia,58 µM
same,TGI,SW-620 colon,30.6 µM
same,TGI,T-47D breast,66.3 µM
same,TGI,TK-10 renal,42.6 µM
same,TGI,U251 CNS,27.5 µM
same,TGI,UACC-257 melanoma,34 µM
same,TGI,UO-31 renal,22.4 µM
